The text below walks through data of US5134137A, “Cephalosporin antibiotics” (The Upjohn Company, priority 1990, dated 1992).

Structures are written as SMILES. Converted amounts (≈) assume the structure as drawn. Like-named read-outs stand apart in the source and are kept apart here.

In one data set the test system is Pasteurella hemolytica. Kind of data set: MIC (minimum inhibitory concentration), agar dilution, Pasteurella hemolytica. The class given is cell-based. Particulars: Pasteurella, read-out: MIC. The method in brief: (§1)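 Each organism receives an inoculum of approx. 10^3–10^4 CFU, taken from a 5% CO2 BHI subculture standardised to 0.5 McFarland and diluted 1:20. It is spotted on Mueller-Hinton agar containing the compound, then incubated for 16–18 h at 37 °C with CO2.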

In the next data set the test system is Pasteurella multocida. Kind of data set: MIC, agar dilution, Pasteurella multocida. The class given is cell-based. Particulars: Pasteurella multocida; strain B77-18; read-out: MIC. The method in brief: as §1
The test system of the next data set is Strep. faecalis. Kind of data set: MIC, agar dilution, Strep. faecalis. Particulars: Enterococcus faecalis. The class given is cell-based. Here is the method:
Stock solution of each test antibiotic compound were prepared to have a concentration of 2 mg. of the test compound per milliliter in sterile water of 0.1M ammonium acetate solution. The amount of each compound used was adjusted for base compound activity as calculated from the purity data for the selected batch of compound.
The dilution procedure described by Washington and Sutter [Manual of Clinical Microbiology, 3rd, Edit. (Lennett, E. H. et al, Eds.), pp. 453-458 (1980), American Society for Microbiology, Washington, D.C.] was modified so that serial concentrations of 128 to 0.0625 microgram/ml. in sterile water was obtained. Then 1.5 ml. aliquots of these test antibiotic dilution mixtures are added to 13.5 molten (50° C.) Mueller-Hinton agar. Each resulting mixture is poured into 15×100 mm, sterile Petri plates and allowed to dry at room temperature overnight.
Test bacterial cultures are maintained at -70° C. on glass beads. [See R. J. Yancey, Jr. et al, Amer. Jr. of Vet. Research, 48, No. 7, pp. 1050-1053, (1987)]. At least one bacteria-laden bead per culture is dropped into one ml. of brain heart infusion (BHI) broth for overnight culture at 37° C. in 5% V/V carbon dioxide in air atmosphere.
On the data of assay, 2 to 8 drops of the bacterial broth cultures are transferred to fresh BHI broth (1 ml.) and the mixture is incubated for 4 to 6 hours at 37° C. in a 5% V/V carbon dioxide in air atmosphere. The resulting cultures are then diluted to match a 0.5 MacFarland standard and further diluted 1:20 V/V with sterile saline solution.
A 0.001 ml. drop of the resulting mixture, containing approximately 10^3 to 10^4 colony forming units (CFU) of each test bacteria organism, is dispensed onto the surface of the test antibiotic compound test plates with a Steer's type replicator. The resulting innoculated plates are incubated 16 to 18 hours at 37° C. with a carbon dioxide atmosphere.

The next data set concerns Streptococcus suis. Kind of data set: MIC, agar dilution, Streptococcus suis. In kind it is cell-based. The method in brief:
as §1

In another data set the test system is P. hemolytica. As to the kind of experiment: Systemic infection model in mice, ED50, P. hemolytica. Particulars: Mus musculus, sc, 144 h, 50% survival six days post infection, per day, read-out: ED50 (95% confidence limits). The class given is in vivo. Here is the method: Experimental Infections and Antitiotic Treatment (for ED50 in mice tests).
Mice are infected and treated with the test antibiotic compound according to procedures described previously [Yancey, Jr., R. J. et at. supra].
The test antibiotic compound is administered subcutaneously immediately following infection, then at 24 hours and 48 hours post infection. The medium effective dose (ED50) number is determined for all infections. The ED50 value is defined as the calculated concentration of the test antibiotic compound in mg. of compound per kilogram of mouse body weight per day at which 50% of the animals survived six days post infection.

A short description of data set [1]: Stability of the compound. The class given is physicochemical.
Data set [2] in a line: Serum half life / duration of antibiotic action.
The test system of the next data set is Micrococcus luteus. Kind of data set: MIC, agar dilution, Micrococcus luteus. In kind it is cell-based. Particulars: Micrococcus luteus; strain UC130; read-out: MIC. An outline of the steps: as §1
A general note: Agar dilution tests growth on a series of plates holding different concentrations.

The mark [3] stands for this setting: Streptococcus suis, strain 538-2, read-out: MIC.
The mark [4] stands for this setting: strain UC6531, subcutaneous, 0, 24, 48 hours post infection.
The mark [5] stands for this setting: strain UC6532, lactamase producing, subcutaneous, 0, 24, 48 hours post infection.

For orientation: MIC means the smallest concentration in the dilution series that meets the test's criterion for growth inhibition. By ED50 is commonly meant the midpoint of the dose-response relation. `CO/N=C(\C(=O)N[C@@H]1C(=O)N2C(C(=O)O)=C(CS)CS[C@H]12)c1csc(N)n1` [Formula III compound, 3-mercaptomethyl-7β-[2-(2-amino-1,3-thiazol-4-yl)-(Z)-2-(methoxyimino)acetamido]ceph-3-em-4-carboxylic acid]: the MIC in the data set with Pasteurella hemolytica (strain B77-19) is not above 0.06 µg/mL; with Pasteurella hemolytica (strain UC6531), not above 0.06 µg/mL; in the data set on Pasteurella hemolytica (strain UC6532) it was not above 0.06 µg/mL; with Pasteurella multocida, not above 0.06 µg/mL; in the data set with Strep. faecalis (strain ATCC29212), more than 32 µg/mL; with Strep. faecalis (strain UC241), more than 32 µg/mL. For the same molecule, the minimal inhibitory concentration (MIC) was more than 32 µg/mL in the data set with Strep. faecalis (strain UC694), not above 0.06 µg/mL in the data set with Streptococcus suis (setting [3]) and not above 0.06 µg/mL in the data set with Streptococcus suis (strain 650-2). Further, the 50% effective dose (ED50) in the data set on P. hemolytica (setting [4]) and in the data set with P. hemolytica (setting [5]) was 0.8 mg/kg each time. For the same molecule, the “stability in alkaline solution” value in data set [1] (alkaline solution) is “decomposes quickly”. Moreover, in data set [1] (dry state, white powder), the “stability in the dry state” value is “stable in the dry state”. For the same molecule, in data set [1] (strongly acidic media), the “stability in strongly acidic media” value is “converted to the 3,4-thio-lactone derivative”. Besides, the “duration of antibiotic action” value in data set [2] (compared with ceftiofur) is “biologically longer acting as an antibiotic than ceftiofur”. In data set [2] (inferred from results against Salmonella typhimurium), the serum half life entry is on record as “longer serum half life”.
As for `CO/N=C(\C(=O)N[C@@H]1C(=O)N2C(C(=O)O)=C(CSC(=O)c3ccco3)CS[C@H]12)c1csc(N)n1` [ceftiofur, 7-[2-(amino-1,3-thiazol-4-yl)-2-(methoxyimino)acetamido]-3-[(fur-2-ylcarbonyl)thiomethyl]-3-cephem-4-carboxylic acid, reference compound], the MIC with Pasteurella hemolytica (strain B77-19) is not above 0.06 µg/mL; in the data set with Pasteurella hemolytica (strain UC6531), not above 0.06 µg/mL; in the data set with Pasteurella hemolytica (strain UC6532), not above 0.06 µg/mL; in the data set with Pasteurella multocida it was not above 0.06 µg/mL; in the data set with Strep. faecalis (strain ATCC29212), 32 µg/mL (≈ 61.1 µM); with Strep. faecalis (strain UC241) it was more than 32 µg/mL. Also, the MIC with Strep. faecalis (strain UC694) was more than 32 µg/mL; with Streptococcus suis (setting [3]) it was not above 0.06 µg/mL; in the data set on Streptococcus suis (strain 650-2) it was not above 0.06 µg/mL; in the data set with Micrococcus luteus it was 0.25 µg/mL (≈ 0.477 µM). Also, the ED50 is 0.8 mg/kg in the data set with P. hemolytica (setting [4]) and 0.9 mg/kg in the data set on P. hemolytica (setting [5]).
With `CO/N=C(\C(=O)N[C@@H]1C(=O)N2C(C(=O)O)=C(CO)CS[C@H]12)c1csc(N)n1` [desacetyl cefotoxime, 7-[2-(2-amino-1,3-thiazol-4-yl)-(syn)-2-methoxyiminoacetamido]-3-hydroxymethylceph-3-em-4-carboxylic acid, reference compound], the MIC is not above 0.06 µg/mL in the data set on Pasteurella hemolytica (strain B77-19); not above 0.06 µg/mL with Pasteurella hemolytica (strain UC6531); not above 0.06 µg/mL with Pasteurella hemolytica (strain UC6532); not above 0.06 µg/mL in the data set on Pasteurella multocida; more than 32 µg/mL with Strep. faecalis (strain ATCC29212); more than 32 µg/mL with Strep. faecalis (strain UC241). Moreover, the values for the MIC in the data set with Strep. faecalis (strain UC694), in the data set on Streptococcus suis (setting [3]) and against Streptococcus suis (strain 650-2) were more than 32 µg/mL, not above 0.06 µg/mL and not above 0.06 µg/mL, respectively. Also, the ED50 in the data set with P. hemolytica (setting [4]) worked out at 0.3 mg/kg; in the data set on P. hemolytica (setting [5]), 0.6 mg/kg.
